US20040176368A1, “Pesticidal composition” (Sumitomo Chemical Company, Limited, priority 2003, published 2004)

Tested on: German cockroaches (Blattlla germanica)
Experiment: Spray test on German cockroaches in glass box (Test example 1)
Format: in vivo
Details: 4.2 ml sprayed, 10 min exposure, observed 4 days thereafter
Experimental: Two grams (2 g) of each of Indoxacarb MP and Imiprothrin are mixed with 98 g of a mixture of xylene/Sorpol SM200X (surfactant produced by Toho Chemical)=85/15 to give each formulation of Indoxacarb MP and Imiprothrin. The formulations for the following tests are produced by mixing the Indoxacarb MP formulation with the Imiprothrin formulation at the designated ratio. The formulations for the tests are diluted with water to the designated concentration to give the preparations for the test.
Into the glass box, 4.2 ml of the preparation obtained above were sprayed with a spray gun. Ten minutes after spraying, the cockroaches were transferred to a plastic container and were provided with food and water. The mortality of the cockroaches was observed 4 days thereafter.

C#CCN1CC(=O)N(COC(=O)C2C(C=C(C)C)C2(C)C)C1=O (mixture of isomers) [Imiprothrin, 2,5-dioxo-3-prop-2-ynylimidazolidin-1-ylmethyl (1R)-trans,cis-2,2-dimethyl-3-(2-methylprop-1-enyl)cyclopropanecarboxylate]
Mortality (%) (concentration of the preparation 0.4 % by weight): 0%

COC(=O)N(C(=O)N1COC2(C(=O)OC)Cc3cc(Cl)ccc3C2=N1)c1ccc(OC(F)(F)F)cc1 (racemic) [Indoxacarb MP, methyl (RS)-7-chloro-2,5-dihydro-2-[[(methoxycarbonyl)[4-(trifluoromethoxy)phenyl]amino]carbornyl]indeno[1,2-e][1,3,4]oxadiazine-4a(3H)-carboxylate]
Mortality (%) (concentration of the preparation 0.5 % by weight): 25%
